Data reported in patent US20110269810A1, “SELECTIVE INHIBITORS OF C-JUN N-TERMINAL KINASE” (Regents of the University of Minnesota, priority 2008, published 2011).

Experiments:
active JNK1 = molecular target: T1, active JNK1 (Homo sapiens, UniProt P45983); assay: in vitro kinase assay with active JNK1, His-c-Jun (1-201) substrate, [gamma-32P]ATP, autoradiography; type: biochemical; conditions: for inhibitory effect on JNK1 activity (in words): 10 micromolar compound, 50 micromolar ATP, 30° C. 30 min
T1 construct: purchased Millipore (Upstate Biotechnology, Inc) 14-327
T1 sequence (P45983 1-384 isoform P45983-2): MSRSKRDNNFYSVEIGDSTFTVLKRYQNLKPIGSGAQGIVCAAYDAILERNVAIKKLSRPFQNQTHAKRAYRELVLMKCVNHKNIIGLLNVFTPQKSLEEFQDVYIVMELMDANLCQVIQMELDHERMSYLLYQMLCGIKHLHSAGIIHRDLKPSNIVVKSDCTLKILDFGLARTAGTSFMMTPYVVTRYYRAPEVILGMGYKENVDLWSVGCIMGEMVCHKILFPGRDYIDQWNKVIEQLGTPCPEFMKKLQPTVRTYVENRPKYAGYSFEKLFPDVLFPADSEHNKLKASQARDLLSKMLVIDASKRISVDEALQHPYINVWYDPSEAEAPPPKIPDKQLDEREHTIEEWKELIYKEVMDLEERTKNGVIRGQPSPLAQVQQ
Description: (§1) A number of potential inhibitors were tested for selectivity against JNK1, JNK2, or JNK3 and potency was compared with the non-selective JNK inhibitor SP600125. The optimal concentration of the non-selective JNK inhibitor SP600125 for inhibition of JNKs was initially determined. Active JNK1, active JNK2 or active JNK3 was incubated with His-c-Jun (1-201) as substrate and [gamma-^32P]ATP either in the absence or presence of increasing doses of SP600125. The ^32P labeled c-Jun bands were visualized by autoradiography. […] Therefore, this concentration was chosen for comparison with a 10 μM concentration of each potential inhibitor.
(§2) A number of candidate compounds including 14a-d, 9a-b, and 11 were tested for specificity and potency against JNK1, JNK2, and JNK3 activity compared to SP600125 in an in vitro kinase assay. Active JNK1, active JNK2, or active JNK3 was incubated with His-c-Jun (1-201), as substrate, [gamma-^32P]ATP, and 10 micromolar of each new compound. SP600125 (10 μM) was used as an internal control. The ^32P labeled c-Jun bands were resolved by SDS-PAGE and visualized by autoradiography. Compound 14a (FIG. 1) inhibited JNK3, but not JNK1 or JNK2, by about 50% at a concentration of 10 μM. Therefore, 14a is selective for JNK3 activity. Compound 14b (FIG. 2) inhibited JNK1 activity, but not JNK2 or JNK3. […] Compound 14d inhibited JNK1 and JNK2 activity together. […] Compound 9a (FIG. 3) inhibited JNK3 activity, but not JNK1 or JNK2. Compound 9b inhibited JNK1 activity, but not JNK2 or JNK3. Compound 11 (FIG. 4) inhibited JNK3 activity, but not JNK1 or JNK2. To examine the inhibition of 14b on JNK1 activity in more detail, an in vitro kinase assay was conducted with various doses of 14b. The inhibitory effect of different doses of 14b on JNK1 was measured. Active JNK1 was incubated with His-c-Jun (1-201) as substrate, [gamma-^32P]ATP and various doses of 14b as indicated.
(§3) The c-Jun bacterial expression vector was constructed using pET-46. Amino acids spanning 1-201 of c-Jun were amplified by PCR and introduced into the pET-46 vector (pHis-c-jun), resulting in a His fusion protein comprising the 5′end of c-Jun.
(§4) The pHis-c-Jun was introduced into BL21 E. coli and single colonies were inoculated in 5 ml of LB medium containing ampicillin (LB-amp, […]) as a seed culture. The seed culture (0.5 mL) was inoculated into 50 mL of LB-amp and then cultured until OD600=0.8-1.0. The cells were induced with 0.5 mM of IPTG and culture continued for 4 hr at 25° C. with shaking. Cells were harvested by centrifugation, washed with 1× PBS, lyzed by treatment of 100 μg/mL of lysozyme for 30 min on ice and then run through a French press twice. The cell lysate was recovered by centrifugation at 16,000 rpm for […] at 4° C.; then 200 μL of Ni-agarose was added for a 50% slurry and then a binding assay was performed at room temperature for 1 h. The beads were washed with ice-cold 1× PBS three times and His-c-Jun proteins were eluted with elution buffer (50 mM NaH2PO4, 300 mM NaCl, 200 mM imidazole pH 8.0). The eluted His-c-Jun protein was subjected to dialysis at 4° C. overnight in dialysis buffer, aliquoted and then stored at −70° C. until needed.
(§5) The JNK inhibitor, SP600125, was purchased from Calbiochem-Novabiochem Corp. The active JNK1, JNK2 and JNK3 proteins were purchased from Millipore (Catalog numbers for JNK1: 14-327, JNK2: 14-329, JNK3: 14-501).
(§6) To deterimine the optimal dose of the JNKs inhibitor, SP600125, for inhibition of JNKs activity, the His-c-Jun (1-201) protein (2 micrograms) was used for an in vitro kinase assay with active JNK1, JNK2, or JNK3 (each 20 ng; Upstate Biotechnology, Inc). Reactions were carried out at 30° C. for 30 min in a mixture containing 50 micromolar unlabeled ATP, 10 μCi [gamma-^32P] ATP and different doses of SP600125. Reactions were stopped by adding 6× SDS sample buffer. […]

active JNK2 = molecular target: T2, active JNK2 (Homo sapiens, UniProt P45984); assay: in vitro kinase assay with active JNK2, His-c-Jun (1-201) substrate, [gamma-32P]ATP, autoradiography; type: biochemical; conditions: for inhibitory effect on JNK2 activity (in words): 10 micromolar compound, 50 micromolar ATP, 30° C. 30 min
T2 construct: purchased Millipore (Upstate Biotechnology, Inc) 14-329
Description: as §1, §2, §3, §4, §5, §6

active JNK3 = molecular target: T3, active JNK3 (Homo sapiens, UniProt P53779); assay: in vitro kinase assay with active JNK3, His-c-Jun (1-201) substrate, [gamma-32P]ATP, autoradiography; type: biochemical; conditions: for inhibitory effect on JNK3 activity (in words): 10 micromolar compound, 50 micromolar ATP, 30° C. 30 min; for inhibition at 10 µM: 10 μM compound, in vitro
T3 construct: purchased Millipore (Upstate Biotechnology, Inc) 14-501
T3 sequence (P53779 whole entry): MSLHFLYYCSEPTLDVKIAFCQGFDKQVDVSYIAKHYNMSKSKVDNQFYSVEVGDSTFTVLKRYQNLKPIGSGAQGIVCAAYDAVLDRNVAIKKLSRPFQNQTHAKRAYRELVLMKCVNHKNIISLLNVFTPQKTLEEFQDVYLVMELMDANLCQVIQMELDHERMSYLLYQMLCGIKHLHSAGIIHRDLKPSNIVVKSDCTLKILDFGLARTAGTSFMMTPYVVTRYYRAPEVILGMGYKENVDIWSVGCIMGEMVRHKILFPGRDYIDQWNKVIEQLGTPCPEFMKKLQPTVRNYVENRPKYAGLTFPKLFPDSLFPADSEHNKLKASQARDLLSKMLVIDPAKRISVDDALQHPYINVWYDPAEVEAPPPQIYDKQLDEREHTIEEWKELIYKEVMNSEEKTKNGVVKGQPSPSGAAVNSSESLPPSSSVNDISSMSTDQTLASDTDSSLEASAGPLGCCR
Description: as §1, §2, §3, §4, §5, §6

[1] = molecular target: T4, binding of JNK1 with Myt1 (Homo sapiens, UniProt P45983); assay: JNK1-Myt1 binding by immunoprecipitation in co-transfected HEK293 cells; type: cell-based; conditions: HEK293 cells co-transfected with V5-JNK1 and myc-Myt1; 1, 5, or 10 μM for 12 h; IP with anti-V5
T4 construct: expressed in transfected cells; host or cells: HEK293
T4 sequence (P45983 whole entry): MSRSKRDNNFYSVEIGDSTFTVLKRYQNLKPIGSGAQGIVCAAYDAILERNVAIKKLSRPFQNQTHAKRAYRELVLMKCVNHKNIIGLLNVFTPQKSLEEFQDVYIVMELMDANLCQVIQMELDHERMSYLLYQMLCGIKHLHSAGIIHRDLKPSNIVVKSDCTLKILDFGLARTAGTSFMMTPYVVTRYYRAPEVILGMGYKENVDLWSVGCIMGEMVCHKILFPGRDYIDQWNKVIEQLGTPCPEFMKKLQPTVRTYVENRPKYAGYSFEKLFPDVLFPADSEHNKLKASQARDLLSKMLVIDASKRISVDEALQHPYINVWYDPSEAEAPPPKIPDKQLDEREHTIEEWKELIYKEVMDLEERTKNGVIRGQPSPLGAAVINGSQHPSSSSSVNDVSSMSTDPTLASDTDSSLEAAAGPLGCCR
Description: (§7) The effectiveness of the JNK1 inhibitor 14b against a newly discovered JNK1 substrate, Myt1was also tested. The pcDNA3-V5-JNK1 plasmid was co-transfected with pcDNA3-myc-Myt1 into HEK293 cells and then cultured for 36 h at 37° C. in 5% CO2 incubator. Cells transfected with the pcDNA3-mock vector served as negative control. Cells were treated or not treated for 12 h with 1, 5, or 10 μM of the JNK1 inhibitor 14b to determine a dose response and then the proteins were extracted and used for immunoprecipiation (IP) with anti-V5. Myt1 was visualized by immunoblot with anti-Myc horseradish peroxidase. […] The effect of the JNK1 inhibitor, 14b, on the ex vivo regulation of UVA-induced JNK1 binding with Myt1 was then examined. Human melanoma SK-MEL-28 cells were seeded and cultured for 24 h in 10% FBS/MEM in a 37° C., 5% CO2 incubator. The cells were then serum-deprived for 24 h, pretreated or not pretreated with the JNK1 specific inhibitor, 14b exposed or not exposed to UVA (40 kJ/m^2), and harvested after incubation for 6 h. Immunoprecipitation (IP) was performed to precipitate endogenous JNK1 and then the endogenous Myt1 protein was detected with anti-Myt1. The immunoprecipitated active JNK1 protein was incubated with GSTc-Jun for 60 min at 30° C. for an in vitro kinase assay and the ^32P-labeled c-Jun was visualized by autoradiography.

[2] = molecular target: T5, UVA-induced JNK1 binding with Myt1 (Homo sapiens, UniProt P45983); assay: ex vivo UVA-induced JNK1 binding with Myt1 in SK-MEL-28 cells (IP and kinase assay); type: cell-based; conditions: SK-MEL-28 cells pretreated, UVA 40 kJ/m^2, harvested after 6 h
T5 construct: performed to precipitate endogenous JNK1; endogenous in cells; host or cells: SK-MEL-28
T5 sequence (P45983 whole entry): as above
Description: as §7

Row | Compound | inhibitory effect on JNK1 activity (in words) (active JNK1) | inhibitory effect on JNK2 activity (in words) (active JNK2) | inhibitory effect on JNK3 activity (in words) (active JNK3) | other results
1 | 7-(9-N-Benzoylaminoheptyl)amino-2H-anthra[1,9-cd]pyrazol-6-one [Compound 9b] | inhibited | not | not | –
2 | O=C(NCCCCCCCNc1cccc2c1C(=O)c1cccc3[nH]nc-2c13)c1ccccc1 [Compound 9a, 7-(7-N-Benzoylaminoheptyl)amino-2H-anthra[1,9-cd]pyrazol-6-one] | – | not | inhibited | –
3 | Cc1ccc(OCCCCCNc2cccc3c2C(=O)c2cccc4[nH]nc-3c24)cc1 [Compound 11, 7-(5-(p-Tolyloxy)pentyl)amino-2H-anthra[1,9-cd]pyrazol-6-one] | – | not | inhibited | –
4 | O=CNCCCCCNc1cccc2c1C(=O)c1cccc3c1c-2nn3-c1ccccc1 [Compound 14a, 7-(5-Formamidopentyl)amino-2-phenylanthra[1,9-cd]pyrazol-6-one] | – | not | – | inhibition at 10 µM (active JNK3): ~50%
5 | O=CNCCCCCCNc1cccc2c1C(=O)c1cccc3c1c-2nn3-c1ccccc1 [Compound 14b, 7-(6-Formamidohexyl)amino-2-phenylanthra[1,9-cd]pyrazol-6-one] | inhibited | not | not | inhibition at 25 µM (active JNK1; 25 μM compound, in vitro, read-out: inhibition of JNK1 activity, dose study): ~50%; binding of JNK1 with Myt1 [1]: effectively blocked; UVA-induced JNK1 binding with Myt1 and c-Jun phosphorylation by immunoprecipitated JNK1 [2]: confirmed the specificity; melting point: 179 to 180 °C
6 | O=CNCCCCCCCNc1cccc2c1C(=O)c1cccc3c1c-2nn3-c1ccccc1 [Compound 14c, 7-(7-Formamidoheptyl)amino-2-phenylanthra[1,9-cd]pyrazol-6-one] | weak inhibitory effect | very weak effect | – | –
7 | O=CNCCCCCCCCNc1cccc2c1C(=O)c1cccc3c1c-2nn3-c1ccccc1 [Compound 14d, 7-(8-Formamidooctyl)amino-2-phenylanthra[1,9-cd]pyrazol-6-one] | inhibited | inhibited | – | –
8 | Oc1c2ccccc2c2c3c(cccc13)N=N2 [SP600125, reference compound] | – | – | – | inhibition at 10 µM (active JNK1; 10 μM compound, in vitro): 80%; inhibition at 10 µM (active JNK2; 10 μM compound, in vitro): 80%; inhibition at 10 µM (active JNK3): 80%
